In paper PMC8923172 (Antimicrobial Agents and Chemotherapy, 2022):
Residues, ends and D or L forms follow the SMILES beside them.

CC[C@H](C)[C@@H]1NC(=O)[C@@H]2CSSC[C@H](NC(=O)[C@H](CCCNC(=N)N)NC(=O)[C@@H]3CSSC[C@H](NC1=O)C(=O)N[C@@H]([C@@H](C)O)C(=O)N[C@@H](CCCNC(=N)N)C(=O)NCC(=O)N[C@@H](Cc1ccccc1)C(=O)N3)C(=O)N[C@@H](CC(C)C)C(=O)N[C@H]1CSSC[C@H](NC(=O)[C@H](C(C)C)NC(=O)CNC(=O)[C@H](CCCNC(=N)N)NC(=O)[C@H](CCCNC(=N)N)NC1=O)C(=O)N[C@@H](CCCNC(=N)N)C(=O)N2 [RTD-1, Rhesus theta (θ) defensin-1] (HELM PEPTIDE1{G.F.C.R.C.L.C.R.R.G.V.C.R.C.I.C.T.R}$PEPTIDE1,PEPTIDE1,3:R3-16:R3|PEPTIDE1,PEPTIDE1,5:R3-14:R3|PEPTIDE1,PEPTIDE1,7:R3-12:R3|PEPTIDE1,PEPTIDE1,1:R1-18:R2$$$V2.0)
mortality (found dead day 15, determined unrelated to treatment) (5 mg/kg/day): 1 out of 16 | LOAEL (i.v.): 20 mg/kg | NOAEL (i.v. once daily x7 days): 10 mg/kg/day | acute, treatment-related mortality (single i.v. 20 mg/kg, day 1): 5 out of 12
